The source of these data is PubChem BioAssay AID1963443 (Molecular Pharmacology Branch, DTP, NCI, 2024).

In the test the test system is MDA-MB-231 complex spheroids, growth inhibition. The test can be described thus: Anticancer human tumor MDA-MB-231 cell line growth inhibition [Asc].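 For all read-outs here: spheroids exposed to compounds for 7 days.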 The note with it: for viability, T/C: stronger effect = lower value. In a few lines:
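Tumor cells were grown as complex spheroids with human endothelial cells (HUVEC) and human mesenchymal stem cells as stroma. Agents were tested alone and in combination, in half-log steps down from the clinical Cmax, or from 10 microM where Cmax was unknown.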

Where [1] appears, read: curve of first compound, second compound 0.01 µM.
Where [2] appears, read: curve of first compound, second compound 0.0316 µM.
Where [3] appears, read: curve of first compound, second compound 0.1 µM.
[4] abbreviates: curve of first compound, second compound 0.316 µM.
Setting [5] is: curve of first compound, second compound 1 µM.
Setting [6] is: second compound 0.01 µM, first compound 0.00316 µM.
Where [7] appears, read: second compound 0.01 µM, first compound 0.01 µM.
[8] abbreviates: second compound 0.01 µM, first compound 0.0316 µM.
Where [9] appears, read: second compound 0.01 µM, first compound 0.1 µM.
Where [10] appears, read: second compound 0.0316 µM, first compound 0.00316 µM.
Setting [11] is: second compound 0.0316 µM, first compound 0.01 µM.
Setting [12] is: second compound 0.0316 µM, first compound 0.0316 µM.
Setting [13] is: second compound 0.0316 µM, first compound 0.1 µM.
The mark [14] stands for this setting: second compound 0.1 µM, first compound 0.00316 µM.
Where [15] appears, read: second compound 0.1 µM, first compound 0.01 µM.
Setting [16] is: second compound 0.1 µM, first compound 0.0316 µM.
[17] abbreviates: second compound 0.1 µM, first compound 0.1 µM.
Setting [18] is: second compound 0.316 µM, first compound 0.00316 µM.
Where [19] appears, read: second compound 0.316 µM, first compound 0.01 µM.
Where [20] appears, read: second compound 0.316 µM, first compound 0.0316 µM.
Setting [21] is: second compound 0.316 µM, first compound 0.1 µM.
Where [22] appears, read: second compound 1 µM, first compound 0.00316 µM.
Where [23] appears, read: second compound 1 µM, first compound 0.01 µM.
The mark [24] stands for this setting: second compound 1 µM, first compound 0.0316 µM.
Setting [25] is: second compound 1 µM, first compound 0.1 µM.

pIC50: −log10 of the molar value. “And” between values parts separate entries of the source, which are not always exact repeats. Equal values may be shown once. Some results are limits rather than exact numbers.

Take `Cn1ncnc1[C@H]1c2n[nH]c(=O)c3cc(F)cc(c23)N[C@@H]1c1ccc(F)cc1` + CNC(C)C(=O)NC1CN(S(=O)(=O)c2cccc(S(=O)(=O)N3CCC4CCC(C(=O)NC(c5ccccc5)c5ccccc5)N4C(=O)C(NC(=O)C(C)NC)C3)c2)CCC2CCC(C(=O)NC(c3ccccc3)c3ccccc3)N2C1=O: the pIC50 runs as follows: under setting [1], greater than 9.50; under setting [2], greater than 9.50; under setting [3], greater than 9.50; under setting [4], greater than 9.50; under setting [5], greater than 9.50. Further, the viability, T/C (second compound 0.01 µM, first compound 0.000316 µM) was 1.83%; the viability, T/C (second compound 0.01 µM, first compound 0.001 µM) was 2.14%; the viability, T/C under setting [6] is 2.04%; the viability, T/C under setting [7] was 2.04%; the viability, T/C under setting [8] is 1.45%; the viability, T/C under setting [9] was 1.63%. Moreover, the viability, T/C by setting is: (second compound 0.0316 µM, first compound 0.000316 µM) 1.73%; (second compound 0.0316 µM, first compound 0.001 µM) 1.45%; under setting [10], 1.76%; under setting [11], 1.3%; under setting [12], 1.2%; under setting [13], 1.22%. Moreover, the viability, T/C is, setting by setting: (second compound 0.1 µM, first compound 0.000316 µM) 1.17%; (second compound 0.1 µM, first compound 0.001 µM) 1.47%; under setting [14], 0.96%; under setting [15], 1.19%; under setting [16], 1.34%; under setting [17], 1.16%. Besides, the viability, T/C runs as follows: (second compound 0.316 µM, first compound 0.000316 µM) 1.12%; (second compound 0.316 µM, first compound 0.001 µM) 1.11%; under setting [18], 1.32%; under setting [19], 0.91%; under setting [20], 1.05%; under setting [21], 1.11%. The viability, T/C (second compound 1 µM, first compound 0.000316 µM) is 1.53%; the viability, T/C (second compound 1 µM, first compound 0.001 µM) is 1.2%; the viability, T/C under setting [22] is 1.23%; the viability, T/C under setting [23] was 1.23%; the viability, T/C under setting [24] was 1.28%; the viability, T/C under setting [25] is 1.26%.
For the molecule `NC(=O)C(=Cn1cnc(-c2cc(C(F)(F)F)cc(C(F)(F)F)c2)n1)c1cncnc1`, the viability, T/C was 95.7% and 87.8% and 73.5% (compound 0.000949 µM); 92.4% and 95.1% and 81.3% (compound 0.003 µM); 84.7% and 87.1% and 84.5% (compound 0.00949 µM); 57.8% and 56.5% and 60.4% (compound 0.03 µM); 50.5% and 47% and 48.1% (compound 0.0949 µM); 14.4% and 21.2% and 21.8% (compound 0.3 µM). The negative logarithm of the IC50 (pIC50) (curve of compound) was 7.14 and 7.21 and 7.13.
In the case of `CCN1C(C(=O)NC23CCC(C(=O)O)(CC2)CC3)C(c2cccc(Cl)c2F)C2(C(=O)Nc3cc(Cl)ccc32)C12CCCCC2` (centres undefined) + Cc1c(S(C)(=O)=O)c(-c2cc(F)cc(N3CCN(c4ccc(NS(=O)(=O)c5ccc(NC(CCN6CCC(C(=O)OCCCP(=O)(O)O)CC6)CSc6ccccc6)c(S(=O)(=O)C(F)(F)F)c5)cc4)CC3)c2)c(-c2ccc(Cl)cc2)n1C(C)C, the pIC50 under setting [3] was less than 5.52; the pIC50 under setting [4] was less than 5.52; the negative-log IC50 (pIC50) under setting [5] was less than 5.52; the negative logarithm of the IC50 (pIC50) (curve of first compound, second compound 3.16 µM) was less than 5.52; the negative-log IC50 (pIC50) (curve of first compound, second compound 10 µM) is less than 5.52. For the same molecule, the viability, T/C (second compound 0.1 µM, first compound 0.00949 µM) was 90%; the viability, T/C (second compound 0.1 µM, first compound 0.03 µM) is 82.6%; the viability, T/C (second compound 0.1 µM, first compound 0.0949 µM) is 103%; the viability, T/C (second compound 0.1 µM, first compound 0.3 µM) was 103%; the viability, T/C (second compound 0.1 µM, first compound 0.949 µM) was 101%; the viability, T/C (second compound 0.1 µM, first compound 3 µM) was 108%. The viability, T/C (second compound 0.316 µM, first compound 0.00949 µM) is 104%; the viability, T/C (second compound 0.316 µM, first compound 0.03 µM) was 105%; the viability, T/C (second compound 0.316 µM, first compound 0.0949 µM) was 105%; the viability, T/C (second compound 0.316 µM, first compound 0.3 µM) was 106%; the viability, T/C (second compound 0.316 µM, first compound 0.949 µM) is 106%; the viability, T/C (second compound 0.316 µM, first compound 3 µM) is 94.9%. In addition, the viability, T/C (second compound 1 µM, first compound 0.00949 µM) is 100%; the viability, T/C (second compound 1 µM, first compound 0.03 µM) is 100%; the viability, T/C (second compound 1 µM, first compound 0.0949 µM) was 104%; the viability, T/C (second compound 1 µM, first compound 0.3 µM) was 100%; the viability, T/C (second compound 1 µM, first compound 0.949 µM) was 105%; the viability, T/C (second compound 1 µM, first compound 3 µM) is 82%. Further, the viability, T/C by setting is: (second compound 3.16 µM, first compound 0.00949 µM) 94.5%; (second compound 3.16 µM, first compound 0.03 µM) 98.4%; (second compound 3.16 µM, first compound 0.0949 µM) 92.9%; (second compound 3.16 µM, first compound 0.3 µM) 91.2%; (second compound 3.16 µM, first compound 0.949 µM) 93.4%; (second compound 3.16 µM, first compound 3 µM) 70.8%. The viability, T/C is, setting by setting: (second compound 10 µM, first compound 0.00949 µM) 94%; (second compound 10 µM, first compound 0.03 µM) 95.7%; (second compound 10 µM, first compound 0.0949 µM) 93.5%; (second compound 10 µM, first compound 0.3 µM) 93.7%; (second compound 10 µM, first compound 0.949 µM) 83.3%; (second compound 10 µM, first compound 3 µM) 57.6%.
Consider `O=C(c1ccc(F)c(F)c1Nc1ccc(I)cc1F)N1CC(O)([C@@H]2CCCCN2)C1` + CNC(C)C(=O)NC1CN(S(=O)(=O)c2cccc(S(=O)(=O)N3CCC4CCC(C(=O)NC(c5ccccc5)c5ccccc5)N4C(=O)C(NC(=O)C(C)NC)C3)c2)CCC2CCC(C(=O)NC(c3ccccc3)c3ccccc3)N2C1=O, for which the negative logarithm of the IC50 (pIC50) is greater than 8.50 under setting [1]; greater than 8.50 under setting [2]; greater than 8.50 under setting [3]; greater than 8.50 under setting [4]; greater than 8.50 under setting [5]. In addition, the viability, T/C is 1.58% under setting [6]; 1.82% under setting [7]; 1.57% under setting [8]; 1.24% under setting [9]; 0.45% (second compound 0.01 µM, first compound 0.316 µM); 0.19% (second compound 0.01 µM, first compound 1 µM). The viability, T/C under setting [10] is 2%; the viability, T/C under setting [11] is 1.64%; the viability, T/C under setting [12] is 1.23%; the viability, T/C under setting [13] was 0.72%; the viability, T/C (second compound 0.0316 µM, first compound 0.316 µM) was 0.39%; the viability, T/C (second compound 0.0316 µM, first compound 1 µM) is 0.17%. Besides, the viability, T/C reads like this: under setting [14], 0.99%; under setting [15], 0.94%; under setting [16], 0.88%; under setting [17], 0.74%; (second compound 0.1 µM, first compound 0.316 µM) 0.5%; (second compound 0.1 µM, first compound 1 µM) 0.25%. In addition, the viability, T/C runs as follows: under setting [18], 1.14%; under setting [19], 0.91%; under setting [20], 0.9%; under setting [21], 1.27%; (second compound 0.316 µM, first compound 0.316 µM) 0.57%; (second compound 0.316 µM, first compound 1 µM) 0.2%. In addition, the viability, T/C was 1.64% under setting [22]; 1.24% under setting [23]; 1.11% under setting [24]; 1.67% under setting [25]; 1.13% (second compound 1 µM, first compound 0.316 µM); 0.21% (second compound 1 µM, first compound 1 µM).
As to `CNC(C)C(=O)NC1CN(S(=O)(=O)c2cccc(S(=O)(=O)N3CCC4CCC(C(=O)NC(c5ccccc5)c5ccccc5)N4C(=O)C(NC(=O)C(C)NC)C3)c2)CCC2CCC(C(=O)NC(c3ccccc3)c3ccccc3)N2C1=O` (centres undefined), the viability, T/C by setting is: (compound 0.00316 µM) 5.11% and 4.58% and 5.25%; (compound 0.01 µM) 2.25% [middle of 14 runs]; (compound 0.0316 µM) 1.55% [middle of 14 runs]; (compound 0.1 µM) 1.38% [middle of 12 runs]. Also, the negative-log IC50 (pIC50) (compound alone, run of 10/24/2022) was greater than 8.00; the negative logarithm of the IC50 (pIC50) (compound alone, run of 11/15/2022) is greater than 8.50; the negative-log IC50 (pIC50) (curve of compound) is greater than 8.50.
